Laboratory results reported in patent publication US20130253039A1, “COLORECTAL CANCER TREATMENTS AND DIAGNOSTIC IMPROVEMENTS” (priority 2012, published 2013).
Read-outs that look alike come from different tables or passages of the source.

How the values were obtained:
[1] = system: hNMNAT2 transfected Caco2 cell line; assay: Cell-kill assay, hNMNAT2 transfected Caco2; conditions: Homo sapiens, Caco-2, 72 h, read-out: Cytotoxicity EC50, hNMNAT2
Procedure: (§1) Colorectal cancer cells were transfected with pTracer hNMNAT2 and the control plasmid pTracerEFV5/HisA using the lipofectamine reagent (Invitrogen, Carlsbad, Calif.). Zeocin resistant green fluorescence protein (GFP) expressing clones were further analyzed by Fluorescence-activated cell sorting (Becton Dickinson Immunocytometry Systems, San Jose, Calif.).
(§2) Colorectal cancer cells (1500 cells/0.1 ml) were dispensed into 96-well tissue culture plates and 24 h later treated with serial dilutions of free tiazofurin or nanoparticles containing tiazofurin (for nanoparticle treatment, cells were incubated for 2 h with gentle shaking, aspirated and fresh media was added) and further incubated for 72 h at 3TC. After incubation, 20 μl of 3-(4,5-dimethylthiazol-2-yl)-5-(3-carboxymethoxyphenyl)-2-(4-sulfophenyl)-2H-tetrazolium reagent was added to each well, mixed, plates were further incubated for 2 h and color developed was read at 490 nm using a microplate spectrophotometer (Spectra MAX250, Molecular Devices, Sunnnyvale, Calif.) and cell-kill data were analyzed by Graphpad Prism 4 software (GraphPad Software, San Diego, Calif.).

[2] = system: hNMNAT2 transfected HT29 cell line; assay: Cell-kill assay, hNMNAT2 transfected HT29; conditions: Homo sapiens, HT-29, 72 h, read-out: Cytotoxicity EC50, hNMNAT2
Procedure: as §1, §2

[3] = system: wild-type HT29; assay: Antitumor activity in athymic mice with subcutaneous wild-type HT29 tumors; assay type: in vivo
Procedure: (§3) In vivo studies were conducted studies to compare antitumor activity of tiazofurin in athymic mice implanted subcutaneously with wild-type and hNMNAT2-over-expressed HT29 cell lines. Groups of five female athymic mice 6-8 weeks old, weighing 16-18 grams, obtained from Harlan Sprague Dawley, Indianapolis, Ind., were injected with wild-type or hNMNAT2-over-expressed HT29 (2×10^6 cells/mice), and tumors were allowed to establish for 7 days. Mice were then treated intraperitoneally with saline or tiazofurin once-a-day for 10 days (QD10) and tumor volume and weights were monitored twice a week. […] There was a dose-dependent decrease in tumor volume following tiazofurin treatment in mice bearing wild-type HT29 (70% decrease in tumor volume at 200 mg/kg and 50% decrease in tumor volume at 50 mg/kg). […] These studies indicate that hNMNAT2-gene-targeted tiazofurin therapy for colorectal cancer is feasible. Further decreasing the dose of tiazofurin will be possible by targeting FR and/or CEA and encapsulating tiazofurin in folate-tethered nanoparticles. Further targeting would translate to additional lowering of tiazofurin induced side-effects.

[4] = system: HCT15; assay: Cell-kill assay (dye-based cell proliferation), HCT15; conditions: Homo sapiens, HCT-15; free tiazofurin, 72 h
Procedure: (§4) Human colorectal cancer cell lines HCT15, HCT116, HT29, HCC2998, and Caco2 were obtained from the National Cancer Institute, Bethesda, Md., USA, maintained in 5% CO2 at 3TC in minimum essential media containing 2.3 μM folic acid (MEM, Life Technologies, Inc., Grand Island, N.Y.) supplemented with 1% penicillin, streptomycin, amphotericin B (Invitrogen, Carlsbad, Calif.), and 10% fetal bovine serum (FBS) for all cell lines except Caco2, which required 20% FBS for optimal growth. Caco2 and HT29 cells were adapted to grow in a low-folate (LF) condition by step-wise reduction of the folate concentration in the medium and finally were stably adapted to grow in folate-free MEM supplemented with 20% and 10% FBS, respectively. The complete LF medium with 20% FBS for Caco2 cells contained 18 nM 5-methyltetrahydrofolate and the LF medium with 10% FBS for HT29 cells contained 9 nM 5-methyltetrahydrofolate. The cells were cultured in low 5-methyltetrahydrofolate conditioned medium for at least 20 generations before they were used in the experiments to promote full expression of folate receptors, and logarithmically growing cells were utilized for all studies.

[5] = system: colorectal cancer; conditions: 21 patients, bolus once a day for 5 days; cited from earlier work
[6] = dose of 1,100 mg/m^2, patients; cited from earlier work
[7] = system: hNMNAT-2-shRNA knockdown cells (Caco2); assay: Cell-kill assay, hNMNAT-2-shRNA knockdown Caco2 cells; assay type: cell-based; conditions: Homo sapiens, Caco-2; hNMNAT2 overexpressing Caco2 silenced with hNMNAT2-shRNA, puromycin selected
Excerpt: Colorectal cancer Caco2 cells overexpressing hNMNAT2 were transfected with control shRNA plasmid and NMNAT2 small hairpin shRNA plasmid (sc-62693-SH: NMNAT2 shRNA Plasmid (h) is a pool of 3 different shRNA plasmids with a hairpin sequence: […] (SEQ ID NO: 3) and sc-62693-SHA: 5′-GUAGAAAGUGAGACUCAAUtt-3′ (SEQ ID NO: 4) and 5′-AUUGAGUCUCACUUUCUACtt-3′ (SEQ ID NO: 5); sc-62693-SHB: 5′-CCUUAGGAAUAGCAUUGUAtt-3′ (SEQ ID NO: 6) and 5′-UACAAUGCUAUUCCUAAGGtt-3′ (SEQ ID NO: 7); sc-62693-SHC: 5′-GCUCUUUCCCUCAACCUUAtt-3′ (SEQ ID NO: 8) and 5′-UAAGGUUGAGGGAAAGAGCtt-3′ (SEQ ID NO: 9). Transfection was conducted for 8 h as per manufacturer's instructions (Santa Cruz Biotechnology, Inc., Santa Cruz, Calif.). Puromycin resistant clones were selected and knockdown of hNMNAT2 was confirmed by Western blot analyses.

[8] = system: HT29; assay: Cell-kill assay, wild-type HT29; assay type: cell-based, human; conditions: for EC50: wild-type HT29, free tiazofurin, 72 h, read-out: Cytotoxicity EC50, Wild-type
Procedure: as §4

[9] = system: hNMNAT2-over-expressed HT29; assay: Antitumor activity in athymic mice with subcutaneous hNMNAT2-over-expressed HT29 tumors; assay type: in vivo
Procedure: as §3

[10] = system: HCT116; assay: Cell-kill assay, HCT116; assay type: cell-based; conditions: Homo sapiens, HCT-116; free tiazofurin, 72 h
Procedure: as §4

[11] = system: TAD concentration; assay: TAD concentration in colorectal cancer cells after tiazofurin treatment (HPLC); assay type: cell-based, human; conditions: 4 h
Procedure: Panels A, B, D, and E, triplicate flasks were set-up with each cell line, treated with tiazofurin (0, 150 and 300 μM) for Caco2 and (0, 50 and 150 μM) for HT29 for 4 h and the cells were processed as detailed in Methods section below. The y-axis of the bar graph indicate the GTP concentration in nmol per million cells while the x-axis gives the tiazofurin concentration used; Panels C and F, effect of TAD concentration following tiazofurin treatment. Triplicate flasks were set-up with each cell line, treated with tiazofurin Caco2 (300 μM), and HT29 (150 μM) for 4 h and processed as detailed in Methods section below. The y-axis indicates the TAD concentration in nmol per million cells. ? […]
For the determination of GTP and TAD, colorectal cancer cells were treated with concentration of tiazofurin (specified in legends to figures) or with saline for 4 h and cell extracts were prepared as detailed earlier. An aliquot of neutralized extract was injected into Phenomenex Gemini 250×4.6 mm, 5μ C18 110A column (Torrance, Calif.) maintained at 19° C., preequilibrated with buffer A (0.1 M potassium phosphate, pH 6.0) and then subjected to a stepwise gradient of buffer A with 20% acetonitrile, pH 6.0 over 30 min and analyzed on Shimadzu High Performance Liquid Chromatography (Canby, Oreg.). […]

[12] = system: GTP pools; assay: GTP concentration in colorectal cancer cells after tiazofurin treatment (HPLC); assay type: cell-based, human; conditions: 4 h
Procedure: The y-axis of the bar graph indicate the GTP concentration in nmol per million cells while the x-axis gives the tiazofurin concentration used; Panels C and F, effect of TAD concentration following tiazofurin treatment. Triplicate flasks were set-up with each cell line, treated with tiazofurin Caco2 (300 μM), and HT29 (150 μM) for 4 h and processed as detailed in Methods section below. The y-axis indicates the TAD concentration in nmol per million cells. ? Wild-type (WT), ? hNMNAT2 transfected cell line. • *Denotes statistical significance (P<0.05) NS Denotes not significant
For the determination of GTP and TAD, colorectal cancer cells were treated with concentration of tiazofurin (specified in legends to figures) or with saline for 4 h and cell extracts were prepared as detailed earlier. An aliquot of neutralized extract was injected into Phenomenex Gemini 250×4.6 mm, 5μ C18 110A column (Torrance, Calif.) maintained at 19° C., preequilibrated with buffer A (0.1 M potassium phosphate, pH 6.0) and then subjected to a stepwise gradient of buffer A with 20% acetonitrile, pH 6.0 over 30 min and analyzed on Shimadzu High Performance Liquid Chromatography (Canby, Oreg.). Under these conditions GTP eluted at 10 min separated from other nucleotides.

[13] = system: HCC2998; assay: Cell-kill assay, HCC2998; assay type: cell-based; conditions: Homo sapiens, HCC 2998; free tiazofurin, 72 h
Procedure: as §4

[14] = system: human colorectal carcinoma; conditions: mouse, in vivo; cited from earlier work
[15] = target: T1, IMPDH (Homo sapiens, UniProt P12268); assay: IMPDH activity in Caco2 cell lines after tiazofurin treatment; assay type: cell-based; conditions: 4 h
T1 construct: endogenous in cells; host or cells: Caco2 (wild-type and hNMNAT2-transfected)
T1 sequence (P12268 2-514): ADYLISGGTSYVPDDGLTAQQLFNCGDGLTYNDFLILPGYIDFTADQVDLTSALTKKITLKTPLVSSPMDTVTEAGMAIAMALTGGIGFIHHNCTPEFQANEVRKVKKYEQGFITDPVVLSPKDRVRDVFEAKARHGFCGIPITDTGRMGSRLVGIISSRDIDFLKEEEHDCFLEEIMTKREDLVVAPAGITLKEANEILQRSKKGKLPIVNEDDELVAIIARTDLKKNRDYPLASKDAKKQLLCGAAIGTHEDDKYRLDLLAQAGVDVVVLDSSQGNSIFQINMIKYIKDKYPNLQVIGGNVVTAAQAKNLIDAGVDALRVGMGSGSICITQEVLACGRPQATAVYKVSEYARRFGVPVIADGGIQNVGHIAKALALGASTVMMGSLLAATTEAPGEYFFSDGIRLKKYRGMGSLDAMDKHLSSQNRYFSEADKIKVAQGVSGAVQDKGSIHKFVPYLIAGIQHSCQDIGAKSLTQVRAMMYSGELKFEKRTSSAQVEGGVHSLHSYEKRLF
Procedure: Panel A, Cells were Processed and NAD levels were determined in the cytoplasmic extracts as described in the Methods section, below. […] Triplicate flasks were set-up with each cell line and incubated with saline or tiazofurin (100-300 μM) for 4 h at 3TC. Cells were processed as described in the Methods section below. Basal IMPDH activity in saline treated control was 1.85 […] of XMP synthesized/mg protein/min; Panel D, NMNAT enzyme activity in wild-type and hNMNAT2 transfected Caco2 cell lines. The y-axis of the bar graph indicates the NMNAT activity in unit/mg of protein; Panel E, hNMNAT2 expression in cytoplasm, nucleus, and mitochondria. Cytoplasmic, nuclear, and mitochondrial proteins were isolated as detailed in the Methods section below and expression of hNMNAT2 protein was determined by Western blot analysis in wild-type and hNMNAT2 transfected caco2 cell lines; Panel F, silencing of hNMNAT2 expression in hNMNAT2 overexpressing cell line. hNMNAT2 expression in transfected Caco2 cell lines was silenced by shRNA-NMNAT2 and there expression was determined by Western blot analysis; Panel G, the wild-type, hNMNAT2 overexpressing, and hNMNAT2 overexpressing Caco2 cell lines were subjected to cell-kill by tiazofurin. ? […]
Colorectal cancer cells were extracted and IMPDH activity was assayed as described and activity is expressed as nmol/min/mg protein [8]. […]

[16] = system: Caco2; assay: Cell-kill assay, wild-type Caco2; assay type: cell-based, human
Procedure: as §4

[17] = 50 mg/kg intraperitoneally once-a-day for 10 days
[18] = 200 mg/kg intraperitoneally once-a-day for 10 days

NC(=O)c1csc([C@@H]2O[C@H](CO)[C@@H](O)[C@H]2O)n1 [tiazofurin, 2-R-D-ribofuranosylthiazole-4-carboxamide]
EC50 [1]: 225 µM
EC50 [2]: 80 ± 3 µM
Decrease in tumor volume [3, 17]: 50%
Decrease in tumor volume [3, 18]: 70%
EC50 [4]: 63.9 µM
Antitumor activity [5]: no significant antitumor activity
Peak plasma concentration [6]: 240 µM
EC50 [7]: 380 µM
EC50 ([8]; Homo sapiens, HT-29, 72 h): 125 µM
EC50 [8]: 130 ± 8 µM
Influence of silencing hNMNAT3 on cell-kill by tiazofurin ([8]; wild-type and hNMNAT2 overexpressing HT29, siRNA-hNMNAT3 24 h): did not influence cell-kill by tiazofurin
Influence of silencing hNMNAT1 on cell-kill by tiazofurin ([8]; wild-type or hNMNAT2-overexpressing HT29, siRNA-hNMNAT1 day 3): had no effect on tiazofurin cell-kill
Effect on tumor [9, 17]: complete disappearance of tumor
Effect on tumor [9, 18]: complete disappearance of tumor
EC50 [10]: 72.6 µM
Fold higher concentration of TAD in hNMNAT2 overexpressing vs wild-type cell line ([11]; Caco2, tiazofurin 300 μM): 2 fold
Fold higher levels of TAD in hNMNAT2-overexpressing vs wild-type cell line ([11]; HT29, tiazofurin 150 μM): 2 fold
Reduction in GTP levels ([12]; hNMNAT2-transfected Caco2, 150 μM tiazofurin): 40%
Reduction in GTP levels ([12]; hNMNAT2-transfected Caco2, 300 μM tiazofurin): 60%
Reduction in GTP levels ([12]; hNMNAT2-transfected HT29, 25 μM tiazofurin): 21%
Reduction in GTP levels ([12]; hNMNAT2-transfected HT29, 100 μM tiazofurin): 47%
Reduction in GTP pools ([12]; wild-type Caco-2, 150 μM tiazofurin): 29%
Reduction in GTP pools ([12]; wild-type Caco-2, 300 μM tiazofurin): 45%
GTP reduction ([12]; wild-type HT29, 25 μM tiazofurin): did not result in GTP reduction
GTP reduction ([12]; wild-type HT29, 100 μM tiazofurin): 22%
EC50 [13]: 274 µM
Antitumor activity [14]: significant antitumor activity
EC50 ([15]; hNMNAT2 transfected Caco2, tiazofurin 100-300 μM, read-out: EC50 of decrease in IMPDH activity): 250 µM
Effect on IMPDH activity ([15]; wild-type Caco2, sub-lethal tiazofurin 100-300 μM): no reduction in IMPDH activity
EC50 ([16]; Homo sapiens, Caco-2, 72 h, wild-type Caco2, free tiazofurin, 72 h, read-out: Cytotoxicity EC50, Wild-type): 450 µM
Influence of silencing hNMNAT3 on cell-kill by tiazofurin ([16]; wild-type and hNMNAT2 overexpressing Caco2, siRNA-hNMNAT3 24 h): no change in the dose of tiazofurin required to provide 50% cell-kill
Influence of silencing hNMNAT1 on cell-kill by tiazofurin ([16]; wild-type or hNMNAT2 overexpressing Caco2, siRNA-hNMNAT1 day 3): did not have any influence on cell-kill by tiazofurin
